Results taken from PubChem BioAssay AID2060512 (Molecular Pharmacology Branch, DTP, NCI, 2025).

Test system: 186277-243-T-J2-PDC complex spheroid viability
Assay: Anticancer human tumor 186277-243-T-J2-PDC patient-derived colon adenocarcinoma cell line growth inhibition [GQUAD]
Conditions: for IC50: curve of first compound; for viability, T/C: stronger effect = lower value
Source text: DNA G-quadruplex Stabilizer Agents in Combinations in Complex Spheroids
A high-throughput screen of multi-cell type tumor spheroids was designed to identify active combinations of DNA G-quadruplex stabilizer agents and targeted small molecules. Complex spheroids include a stromal component modeled by human endothelial cells (HUVEC) and fibroblasts modeled by human mesenchymal stem cells (MSCs). The concentration ranges selected for each drug and investigational agent were based upon clinically achievable concentrations if the clinical Cmax of the agent was known.
Compounds. The drugs and investigational agents: pidnarulex (CX-5461; NSC782164), APTO-253 (NSC789042), BRACO-19 (NSC847499), peposertib (NSC802822), ceralasertib (NSC780249), elimusertib (NSC800525), camonsertib (NSC841442), AZD-1390 (NSC803789), olaparib (NSC753686), talazoparib (NSC767125), ART-558 (NSC835418), sotorasib (NSC818433), MRTX-1133 (NSC836407), SN-38 (NSC673596), topotecan (NSC609699), etoposide (NSC141540), doxorubicin (NSC123127), gemcitabine (NSC613327), 5-fluorouracil (NSC19893), paclitaxel (NSC125973), vemurafenib (NSC761431), panobinostat (NSC761190), R-306465 (JNJ-16241199; NSC773264), adavosertib (NSC754352), TP-3654 (NSC805149), carboplatin (NSC241240), KSQ-4279 (NSC840948), and staurosporine (NSC755774) were obtained from the National Cancer Institute (NCI) Developmental Therapeutics Program Chemical Repository (34). The FDA-approved anticancer drug set is available from the NCI Developmental Therapeutics Program. […] The stock solutions were prepared in dimethyl sulfoxide (DMSO, Sigma-Aldrich, St. Louis, MO, cat. D2650) at 800-fold the tested concentration and stored at -70 degrees C prior to their use. All drugs and investigational agents were tested over a range starting from a high concentration at or near the clinical Cmax and decreasing in half-log increments. If the clinical Cmax for an agent had not been determined, the highest concentration tested was 10 microM.
2.3 Cell Culture. All cells were maintained in an incubator at 37 degrees C and 5% CO2 with 95% humidity. The PDC lines were cultured according to standard operating procedures established by the NCI PDMR. All PDCs were thawed and cultured in Matrigel-coated flasks prepared with a working solution of 1X Ham's F-12 nutrient mix, without supplementation (Invitrogen, cat. 11765054), 100 U/mL penicillin-streptomycin (Invitrogen, cat. 15140122), and 2.5% Matrigel (Corning Inc., cat. 354248) for the first three passages. The 857933-349-R-J2-PDC line was cultured in 6C/Colon 1B media, which includes advanced DMEM/F-12 (Thermo Fisher Scientific, cat. 12634028), 10 mM HEPES (Thermo Fisher Scientific, cat. 15630080), 1X GlutaMAX supplement (Thermo Fisher Scientific, cat. 35050061), 0.1 mg/mL primocin (InvivoGen, cat. ant-pm-2), 10% defined fetal bovine serum, heat inactivated (HyClone Laboratories Inc., cat. SH30070.03HI), 50% L-WRN conditioned media (ATCC, cat. CRL-3276), 1.25 mM N-Acetyl-L-cysteine (Sigma-Aldrich, cat. A9165), 10 mM nicotinamide (Sigma-Aldrich, cat. N0636), 1X B-27 supplement (Thermo Fisher Scientific, cat. 17504044), 1X N-2 supplement (Thermo Fisher Scientific, cat. 17502048), 10 microM Y-27632 dihydrochloride (Tocris Bioscience, cat. 1254), and 50 ng/mL human EGF recombinant protein (Thermo Fisher Scientific, cat. PHG0311). The 485176-168-R4-J1-PDC line was cultured in Panc media, which includes all 6C/Colon 1B media components plus 100 ng/mL human FGF-10 (Thermo Fisher Scientific, cat. 100-26), 500 nM SB-431542 (Selleckchem, cat. S1067), and gastrin (Tocris, cat. 3006).
[…]

[1] = second compound 0.0316 µM, first compound 0.0316 µM
[2] = second compound 0.0316 µM, first compound 0.1 µM
[3] = second compound 0.0316 µM, first compound 0.316 µM
[4] = second compound 0.0316 µM, first compound 1 µM
[5] = second compound 0.0316 µM, first compound 3.16 µM
[6] = second compound 0.0316 µM, first compound 10 µM
[7] = second compound 0.1 µM, first compound 0.0316 µM
[8] = second compound 0.1 µM, first compound 0.1 µM
[9] = second compound 0.1 µM, first compound 0.316 µM
[10] = second compound 0.1 µM, first compound 1 µM
[11] = second compound 0.1 µM, first compound 3.16 µM
[12] = second compound 0.1 µM, first compound 10 µM
[13] = second compound 0.316 µM, first compound 0.0316 µM
[14] = second compound 0.316 µM, first compound 0.1 µM
[15] = second compound 0.316 µM, first compound 0.316 µM
[16] = second compound 0.316 µM, first compound 1 µM
[17] = second compound 0.316 µM, first compound 3.16 µM
[18] = second compound 0.316 µM, first compound 10 µM
[19] = second compound 1 µM, first compound 0.0316 µM
[20] = second compound 1 µM, first compound 0.1 µM
[21] = second compound 1 µM, first compound 0.316 µM
[22] = second compound 1 µM, first compound 1 µM
[23] = second compound 1 µM, first compound 3.16 µM
[24] = second compound 1 µM, first compound 10 µM
[25] = second compound 3.16 µM, first compound 0.0316 µM
[26] = second compound 3.16 µM, first compound 0.1 µM
[27] = second compound 3.16 µM, first compound 0.316 µM
[28] = second compound 3.16 µM, first compound 1 µM
[29] = second compound 3.16 µM, first compound 3.16 µM
[30] = second compound 3.16 µM, first compound 10 µM
[31] = second compound 10 µM, first compound 0.0316 µM
[32] = second compound 10 µM, first compound 0.1 µM
[33] = second compound 10 µM, first compound 0.316 µM
[34] = second compound 10 µM, first compound 1 µM
[35] = second compound 10 µM, first compound 3.16 µM
[36] = second compound 10 µM, first compound 10 µM
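Note: spheroids exposed to drugs for 7 days.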
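Throughout, for viability, T/C: 100% = DMSO vehicle control viability.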

Compound: C=CCn1c(=O)c2cnc(Nc3ccc(N4CCN(C)CC4)cc3)nc2n1-c1cccc(C(C)(C)O)n1 + Cc1[nH]c2ccc(F)cc2c1-c1nc2c3cccnc3c3ncccc3c2[nH]1
- IC50 (second compound 0.0316 µM): 0.174 µM
- IC50 (second compound 0.1 µM): 0.18 µM
- IC50 (second compound 0.316 µM): 0.179 µM
- IC50 (second compound 1 µM): 0.179 µM
- IC50 (second compound 3.16 µM): 0.142 µM
- IC50 (second compound 10 µM): 0.138 µM
- viability, T/C [1]: 97.9%
- viability, T/C [2]: 83.8%
- viability, T/C [3]: 13.2%
- viability, T/C [4]: 7.62%
- viability, T/C [5]: 8.21%
- viability, T/C [6]: 8.87%
- viability, T/C [7]: 112%
- viability, T/C [8]: 87.8%
- viability, T/C [9]: 13.6%
- viability, T/C [10]: 9.07%
- viability, T/C [11]: 9.3%
- viability, T/C [12]: 9.89%
- viability, T/C [13]: 108%
- viability, T/C [14]: 88%
- viability, T/C [15]: 12.7%
- viability, T/C [16]: 8.61%
- viability, T/C [17]: 9.09%
- viability, T/C [18]: 11.5%
- viability, T/C [19]: 97.1%
- viability, T/C [20]: 87.4%
- viability, T/C [21]: 13.7%
- viability, T/C [22]: 8.91%
- viability, T/C [23]: 9.37%
- viability, T/C [24]: 10.9%
- viability, T/C [25]: 96.4%
- viability, T/C [26]: 67.2%
- viability, T/C [27]: 11.1%
- viability, T/C [28]: 8.17%
- viability, T/C [29]: 8.58%
- viability, T/C [30]: 10.8%
- viability, T/C [31]: 89.9%
- viability, T/C [32]: 64.6%
- viability, T/C [33]: 12.9%
- viability, T/C [34]: 8.07%
- viability, T/C [35]: 8.03%
- viability, T/C [36]: 10.3%

Compound: CC(C)(O)C1CCC(Nc2ccc3ncc(-c4cccc(C(F)(F)F)c4)n3n2)CC1 (centres undefined) + Cc1[nH]c2ccc(F)cc2c1-c1nc2c3cccnc3c3ncccc3c2[nH]1
- IC50 (second compound 0.0316 µM): 2.55 µM
- IC50 (second compound 0.1 µM): 3.84 µM
- IC50 (second compound 0.316 µM): 2.87 µM
- IC50 (second compound 1 µM): 2.75 µM
- IC50 (second compound 3.16 µM): 2.45 µM
- IC50 (second compound 10 µM): 2.19 µM
- viability, T/C [1]: 105%
- viability, T/C [2]: 87.1%
- viability, T/C [3]: 86.5%
- viability, T/C [4]: 80.9%
- viability, T/C [5]: 42.2%
- viability, T/C [6]: 29.2%
- viability, T/C [7]: 100%
- viability, T/C [8]: 103%
- viability, T/C [9]: 78.8%
- viability, T/C [10]: 83.3%
- viability, T/C [11]: 49.8%
- viability, T/C [12]: 32.1%
- viability, T/C [13]: 90%
- viability, T/C [14]: 110%
- viability, T/C [15]: 97.3%
- viability, T/C [16]: 91.8%
- viability, T/C [17]: 46.1%
- viability, T/C [18]: 32.6%
- viability, T/C [19]: 98.8%
- viability, T/C [20]: 97%
- viability, T/C [21]: 90.5%
- viability, T/C [22]: 107%
- viability, T/C [23]: 41.7%
- viability, T/C [24]: 45%
- viability, T/C [25]: 95.6%
- viability, T/C [26]: 115%
- viability, T/C [27]: 107%
- viability, T/C [28]: 90.9%
- viability, T/C [29]: 37.9%
- viability, T/C [30]: 38.6%
- viability, T/C [31]: 91%
- viability, T/C [32]: 111%
- viability, T/C [33]: 113%
- viability, T/C [34]: 87.4%
- viability, T/C [35]: 29.4%
- viability, T/C [36]: 35.3%
